Measurements reported in patent publication US11008332B2, “Pharmaceutical composition for preventing or treating aging-related diseases containing decursin derivative as active ingredient” (PRG S&TECH INC., priority 2017, dated 2021).
Values joined by “and” are separate entries in the source; they are usually repeats but may differ in a detail not shown here. Identical values can stand only once.

Legend:
[1] = Chemical pharmacokinetic (PK) analysis, blood/plasma concentration by LC-MS/MS; assay type: in vivo; conditions: for Plasma concentration, Mean: n = 3
Experimental: For PK analysis, 5 mg/kg of JH4 in 10% DMSO, 5% Tween […] solution was intravenously injected and 10 mg/kg of JH4 in 10% NMP and 90% PEG400 solution was per orally delivered. At the setting time-points, blood concentration of JH4 was determined by LC-MS/MS analysis and the PK analysis for other chemicals was also tested by the similar protocol.

Lmna^wt/G609G mice = assay: Life span and morphology of Lmna^wt/G609G mice; assay type: in vivo, mouse
Water solubility = assay type: physicochemical
HGPS cells [2] = conditions: previous report; cited from earlier work
[3] = test system: Lmna^G609G/G609G, progeria model mouse; conditions: intraperitoneal injection (i.p.), previous report; cited from earlier work
HGPS cells [4] = assay: Immunofluorescence staining of HGPS cells (nuclear morphology, progerin, H3K9me3); assay type: cell-based, Human
Experimental: Human fibroblast cells from HGPS patients (AG03198, person; AG03199; person), WS patients (AG06300, person; AG03141, person; AG00780, person) and controls (GM 00038, person) were obtained from the Coriell Cell Repositories (Camden, N.J., USA) and were maintained in EMEM, containing 15% FBS, 2 mM glutamine or HEMEM with 26 mM HEPES without antibiotics.
Cells were seeded on a cover glass and transfected with the indicated vectors.
After fixing with 100% methanol or 1% paraformaldehyde (PFA) for 1 h at 4° C., cells were incubated with blocking buffer (PBS+anti-human-Ab; 1:400) for 1 h.
After washing with PBS twice, cells were incubated with anti-Lamin A/C, Progerin or H3K9Me3 in blocking buffer (1:200) overnight and sequentially with anti-goat Ab-FITC or anti-rabbit Ab-rhodamin in blocking buffer (1:500) for 7 h and mounted, and nucleus was stained with DAPI. Thereafter Immunofluorescence signal was detected by fluorescence microscopy (Zeiss and Logos).
For counting nuclear deformed cell, obtained immunofluorescence images were used. Nuclear membrane showing abnormalities, dependent on Lamin A staining, were counted from randomly selected field. Counted cells were calculated percentage.

progerin = molecular target: T1, progerin (Homo sapiens, UniProt P02545); assay: GST pull-down of bead-conjugated GST WRN-R1/WRN-R2 with GFP-progerin transfected 293 cell lysates; assay type: binding; conditions: compared with WRN-R1, FIG. 4B
T1 construct: expressed in transfected cells; host or cells: HEK293
T1 sequence (P02545 1-614 isoform P02545-6): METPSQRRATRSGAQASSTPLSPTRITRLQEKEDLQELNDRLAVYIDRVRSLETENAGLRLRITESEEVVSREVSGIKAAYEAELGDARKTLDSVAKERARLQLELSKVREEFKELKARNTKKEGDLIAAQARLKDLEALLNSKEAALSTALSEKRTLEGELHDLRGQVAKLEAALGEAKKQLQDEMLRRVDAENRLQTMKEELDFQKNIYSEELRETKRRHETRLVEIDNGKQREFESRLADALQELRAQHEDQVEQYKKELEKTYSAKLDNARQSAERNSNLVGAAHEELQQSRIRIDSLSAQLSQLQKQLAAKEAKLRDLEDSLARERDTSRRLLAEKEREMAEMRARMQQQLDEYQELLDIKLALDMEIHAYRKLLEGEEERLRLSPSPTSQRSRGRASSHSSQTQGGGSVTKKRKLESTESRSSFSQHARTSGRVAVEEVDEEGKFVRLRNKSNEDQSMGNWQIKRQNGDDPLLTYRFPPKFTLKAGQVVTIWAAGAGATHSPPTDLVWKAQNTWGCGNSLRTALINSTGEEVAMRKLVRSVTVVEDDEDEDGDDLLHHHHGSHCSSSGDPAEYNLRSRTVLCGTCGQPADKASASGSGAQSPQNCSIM
Experimental: For the analysis of protein-protein interaction, Glutathione S-transferase (GST) pull-down assay was performed.
To detect the interaction, GST-bead-fused Lamin A-C-terminal region, Progerin-C-terminal region, WRN-R1 region or WRN-R2 region was incubated with GFP tagged Progerin (GFP-Progerin) and Lamin A (GFP-Lamin A) transfected HEK293 cell lysate for 30 min at RT.
After washing once with PBS, precipitated materials were collected and subjected into SDS-PAGE and western blot with anti-GFP and GST.

[5] = molecular target: T2, progerin and Lamin A binding (Homo sapiens, UniProt P02545); assay: Competition assay of WRN-R1 and R2 against progerin and Lamin A binding; conditions: bead conjugated GST-progerin with GFP-Lamin A transfected 293 lysate, FIG. 4C
T2 construct: produced by cloning of 100 AA from upstream of the termination codon through PCR; made in house; GFP-Lamin A from transfected 293 cells
T2 sequence (P02545 1-614 isoform P02545-6): T1 sequence (P02545 1-614 isoform P02545-6)
Experimental: For the competition assay of WRN-R1 and R2 against progerin and Lamin A binding, bead-conjugated GST-progerin was incubated with GFP-Lamin A overexpressed 293 lysate with or without WRN-R1 or R2 recombinant protein.

hERG ion channel = hERG ion channel (Homo sapiens, UniProt Q12809); assay: hERG inhibition (in vitro ADME); conditions: in vitro ADME analysis, FIG. 2B
hERG ion channel, sequence (Q12809 whole entry): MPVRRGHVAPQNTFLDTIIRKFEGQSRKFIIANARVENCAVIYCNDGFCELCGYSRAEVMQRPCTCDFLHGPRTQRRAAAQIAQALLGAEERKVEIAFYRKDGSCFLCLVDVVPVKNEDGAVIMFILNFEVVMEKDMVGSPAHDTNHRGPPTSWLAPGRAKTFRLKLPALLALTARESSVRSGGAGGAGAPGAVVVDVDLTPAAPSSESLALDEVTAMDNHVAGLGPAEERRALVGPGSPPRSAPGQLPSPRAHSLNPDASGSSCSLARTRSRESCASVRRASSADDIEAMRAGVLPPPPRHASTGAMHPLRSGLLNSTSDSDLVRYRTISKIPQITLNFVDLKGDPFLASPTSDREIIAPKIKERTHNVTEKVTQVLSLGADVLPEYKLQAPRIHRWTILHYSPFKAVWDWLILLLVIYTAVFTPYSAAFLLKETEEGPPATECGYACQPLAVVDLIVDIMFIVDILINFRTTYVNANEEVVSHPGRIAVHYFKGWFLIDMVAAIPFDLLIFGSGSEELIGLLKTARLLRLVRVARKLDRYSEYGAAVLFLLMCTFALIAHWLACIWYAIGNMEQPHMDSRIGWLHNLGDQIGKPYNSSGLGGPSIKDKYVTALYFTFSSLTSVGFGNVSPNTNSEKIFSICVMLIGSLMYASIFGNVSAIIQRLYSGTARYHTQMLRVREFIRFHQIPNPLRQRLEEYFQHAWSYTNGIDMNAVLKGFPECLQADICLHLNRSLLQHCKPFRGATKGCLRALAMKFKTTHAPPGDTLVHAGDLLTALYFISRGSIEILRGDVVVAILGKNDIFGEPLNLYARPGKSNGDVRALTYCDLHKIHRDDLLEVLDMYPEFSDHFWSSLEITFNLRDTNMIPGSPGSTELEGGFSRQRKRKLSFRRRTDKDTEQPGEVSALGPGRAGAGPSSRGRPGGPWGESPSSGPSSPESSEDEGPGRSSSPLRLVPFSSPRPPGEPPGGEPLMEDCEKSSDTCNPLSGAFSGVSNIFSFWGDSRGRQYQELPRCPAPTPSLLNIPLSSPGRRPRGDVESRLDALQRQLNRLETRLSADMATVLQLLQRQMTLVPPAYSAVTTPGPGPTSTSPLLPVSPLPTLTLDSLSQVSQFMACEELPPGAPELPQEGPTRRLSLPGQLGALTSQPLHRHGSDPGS

[6] = test system: progerin expression in progerin-transfected 293 cells; assay: Progerin expression analysis in progerin-transfected 293 cells (Western blot); assay type: cell-based; conditions: 24 hours, FIG. 1D
Experimental: HEK293 cell line, obtained from ATCC, were maintained in liquid medium (DMEM) containing 10% FBS and 1% antibiotics at 37° C.
Whole-cell lysates were prepared in RIPA.
15 μg of cell extracts were separated by SDS-PAGE and transferred onto a PVDF membrane.
The membrane was incubated for 1 h to overnight at 4° C. with primary antibody, followed by reaction with a secondary antibody at room temperature for 1 h.
Peroxidase activity was detected by chemiluminescence with ECL kit (Intron, Seoul, Korea) as recommended by its manufacturer.

Plasma protein = Plasma protein binding, human; assay type: in vitro ADME
Experimental: In vitro ADME studies (plasma protein binding, CYP inhibition, microsomal stability, plasma stability and hERG inhibition) were performed by New drug development center though standard protocols.

[7] = intravenous injection 5 mg/kg, 1 hr
[8] = intravenous injection 5 mg/kg, 2 hr
[9] = intravenous injection 5 mg/kg, 8 hr
[10] = intravenous injection 5 mg/kg, 24 hr
[11] = oral administration 10 mg/kg, 0.08 hr
[12] = oral administration 10 mg/kg, 0.25 hr
[13] = oral administration 10 mg/kg, 0.5 hr
[14] = oral administration 10 mg/kg, 1 hr
[15] = oral administration 10 mg/kg, 2 hr
[16] = oral administration 10 mg/kg, 4 hr
[17] = oral administration 10 mg/kg, 8 hr
[18] = oral administration 10 mg/kg, 24 hr
[19] = Lmna^wt/G609G mice, injection started from 43 weeks old, FIG. 2E
[20] = recombinant peptide delivered into HGPS cells with protein delivery agent, 24 hr, FIG. 4D

CC1(C)Oc2cc3oc(=O)ccc3cc2C[C@@H]1OC(=O)/C=C/c1cccnc1 [JH4]
disappearance after PO treatment ([1]; PO treatment, FIG. 1A): very rapidly disappeared by PO treatment
Plasma concentration, Mean ([1]; intravenous injection 5 mg/kg, 0.08 hr): 4.7 ng/mL
Plasma concentration, individual subjects ([1]; intravenous injection 5 mg/kg, 0.08 hr, 5 mg/kg): 3.3 ng/mL and 4.6 ng/mL and 6.3 ng/mL
Plasma concentration, Mean ([1]; intravenous injection 5 mg/kg, 0.25 hr): 1.5 ng/mL
Plasma concentration, individual subjects ([1]; intravenous injection 5 mg/kg, 0.25 hr, 5 mg/kg): 1.7 ng/mL and 1.1 ng/mL and 1.8 ng/mL
Plasma concentration, Mean ([1]; intravenous injection 5 mg/kg, 0.5 hr): 0.6 ng/mL
Plasma concentration, individual subjects ([1]; intravenous injection 5 mg/kg, 0.5 hr, 5 mg/kg): 0.5 ng/ml (2×) and 0.7 ng/ml
Plasma concentration, individual subjects [1, 7]: BQL (Below Quantifiable Limit (<1 ng/ml))
Plasma concentration, Mean [1, 7]: BQL (Below Quantifiable Limit (<1 ng/ml))
Plasma concentration, individual subjects [1, 8]: BQL (Below Quantifiable Limit (<1 ng/ml))
Plasma concentration, Mean [1, 8]: BQL (Below Quantifiable Limit (<1 ng/ml))
Plasma concentration, Mean ([1]; intravenous injection 5 mg/kg, 4 hr): BQL (Below Quantifiable Limit (<1 ng/ml))
Plasma concentration, individual subjects ([1]; intravenous injection 5 mg/kg, 4 hr, 5 mg/kg): BQL (Below Quantifiable Limit (<1 ng/ml)) (2×) and BOL
Plasma concentration, individual subjects [1, 9]: BQL (Below Quantifiable Limit (<1 ng/ml))
Plasma concentration, Mean [1, 9]: BQL (Below Quantifiable Limit (<1 ng/ml))
Plasma concentration, individual subjects [1, 10]: BQL (Below Quantifiable Limit (<1 ng/ml))
Plasma concentration, Mean [1, 10]: BQL (Below Quantifiable Limit (<1 ng/ml))
half-life in vivo ([1]; intravenously injected and orally administrated): very short half-life
Plasma concentration, individual subjects [1, 11]: BQL (Below Quantifiable Limit (<1 ng/ml))
Plasma concentration, Mean [1, 11]: BQL (Below Quantifiable Limit (<1 ng/ml))
Plasma concentration, individual subjects [1, 12]: BQL (Below Quantifiable Limit (<1 ng/ml))
Plasma concentration, Mean [1, 12]: BQL (Below Quantifiable Limit (<1 ng/ml))
Plasma concentration, individual subjects [1, 13]: BQL (Below Quantifiable Limit (<1 ng/ml))
Plasma concentration, Mean [1, 13]: BQL (Below Quantifiable Limit (<1 ng/ml))
Plasma concentration, individual subjects [1, 14]: BQL (Below Quantifiable Limit (<1 ng/ml))
Plasma concentration, Mean [1, 14]: BQL (Below Quantifiable Limit (<1 ng/ml))
Plasma concentration, individual subjects [1, 15]: BQL (Below Quantifiable Limit (<1 ng/ml))
Plasma concentration, Mean [1, 15]: BQL (Below Quantifiable Limit (<1 ng/ml))
Plasma concentration, individual subjects [1, 16]: BQL (Below Quantifiable Limit (<1 ng/ml))
Plasma concentration, Mean [1, 16]: BQL (Below Quantifiable Limit (<1 ng/ml))
Plasma concentration, individual subjects [1, 17]: BQL (Below Quantifiable Limit (<1 ng/ml))
Plasma concentration, Mean [1, 17]: BQL (Below Quantifiable Limit (<1 ng/ml))
Plasma concentration, individual subjects [1, 18]: BQL (Below Quantifiable Limit (<1 ng/ml))
Plasma concentration, Mean [1, 18]: BQL (Below Quantifiable Limit (<1 ng/ml))
prolongation of life (Lmna^wt/G609G mice; Lamn^wt/G609G model): about 10 weeks
average life span (Lmna^wt/G609G mice; [19]): 54 weeks
maximum (max) life span (Lmna^wt/G609G mice; [19]): 56 weeks
water solubility (Water solubility): very low water solubility
aging-related markers in HGPS cells (HGPS cells [2]): restored aging-related markers such as p16/INK4A, DNA-PK and H3K9me3 expression
nuclear deformation of HGPS cells (HGPS cells [2]): improved the nuclear deformation of HGPS cells
prolongation of progerin model mouse lifespan [3]: about 4 weeks

WRN-R2: recombinant WRN-R2 region (hWRN 424-476), duplicated peptide HLSPNDNENDTSYVIESDEDELEMEMLK x2
H3K9me3 expression in HGPS cells (HGPS cells [4]; [20]): H3K9me3 expression was improved
nuclear morphology of HGPS cells (HGPS cells [4]; [20]): nuclear morphology was normalized
binding to progerin (progerin): strongly binds to progerin
blocking of interaction of progerin and Lamin A [5]: blocks the interaction of progerin and Lamin A

CC1(C)Oc2cc3oc(=O)ccc3cc2CC1OC(=O)N/C=C/c1cccnc1 (stereo not shown) [JH010]
bioavailability (B.A.) ([1]; PK analysis, FIG. 2A): 70%
PK profile ([1]; in vivo PK analysis, FIG. 2A): proper PK profile
hERG ion channel inhibition (hERG ion channel): hERG ion channel inhibition of the JH010 compound was confirmed
progerin expression [6]: inhibiting progerin expression
nuclear abnormality of HGPS cells (HGPS cells [4]; HGPS cells incubated 48 hr, FIG. 1E): improved nuclear abnormality of HGPS cells
H3K9me3 expression in HGPS cells (HGPS cells [4]; immunostaining, FIG. 1F): induced H3K9me3 expression

C[C@@H]1C[C@H]2[C@@H]3CCC4=CC(=O)C=C[C@]4(C)[C@@]3(F)[C@@H](O)C[C@]2(C)[C@@]1(O)C(=O)CO [Dexamethasone]
Plasma protein binding Human (% Bound) (Plasma protein): 62.1 % Bound
